The source of these data is US7074789B2, “Kinase inhibitors” (Amgen Inc., priority 1999, dated 2006).

Holding throughout (format): biochemical
One assay addresses T1, Itk (Homo sapiens, UniProt Q08881).
T1 construct: Kinases are expressed as either kinase domains or full length constructs; made in house
T1 sequence (Q08881 1-620): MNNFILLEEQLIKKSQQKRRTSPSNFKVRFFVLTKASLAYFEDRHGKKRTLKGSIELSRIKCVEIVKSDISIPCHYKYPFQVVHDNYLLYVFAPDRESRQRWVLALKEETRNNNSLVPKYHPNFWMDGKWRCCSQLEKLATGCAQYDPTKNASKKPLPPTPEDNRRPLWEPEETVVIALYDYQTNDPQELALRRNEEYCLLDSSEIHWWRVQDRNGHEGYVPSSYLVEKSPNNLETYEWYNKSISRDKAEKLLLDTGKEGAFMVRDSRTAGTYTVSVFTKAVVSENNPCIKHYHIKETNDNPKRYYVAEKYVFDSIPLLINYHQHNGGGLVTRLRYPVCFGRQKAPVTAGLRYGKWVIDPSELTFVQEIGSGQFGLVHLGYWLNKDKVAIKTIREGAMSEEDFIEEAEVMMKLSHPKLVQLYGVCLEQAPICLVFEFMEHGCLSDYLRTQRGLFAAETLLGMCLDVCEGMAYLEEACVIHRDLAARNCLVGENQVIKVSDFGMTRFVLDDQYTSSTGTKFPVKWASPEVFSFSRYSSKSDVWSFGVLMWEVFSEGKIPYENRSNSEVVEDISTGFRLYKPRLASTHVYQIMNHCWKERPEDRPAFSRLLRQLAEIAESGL
Put plainly: Kinase inhibition assay (33P transfer), Itk. Conditions: Table 3; read-out: Itk-1. The essentials: (§1)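 Radiometric format: recombinant tagged kinase (catalytic domain or whole protein, sometimes combined with regulatory polypeptides) phosphorylates immobilised poly(Glu,Tyr) 4:1 or poly(Arg,Ser) 3:1 using [33P]ATP. Wells are washed in 0.5% phosphoric acid, then counted. IC50 is taken where substrate labelling falls by half.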

For a further assay, the target named is T2, AKT (Homo sapiens, UniProt Q9Y243).
T2 construct: Kinases are expressed as either kinase domains or full length constructs; made in house
Nature of the assay: Kinase inhibition assay (33P transfer), AKT. The note with it: Table 2, kinase inhibition class; read-out: AKT3-1. The essentials: (§2)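 Liquid scintillation counting of 33P on plate-bound synthetic substrates gives kinase activity. Plates are washed in 0.5% phosphoric acid first; kinases are tagged recombinant proteins from E. coli or baculovirus-infected High Five cells.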

Another assay concerns the target T3, IGFR-1 (Homo sapiens, UniProt P08069).
T3 construct: Kinases are expressed as either kinase domains or full length constructs; made in house
Nature of the assay: Kinase inhibition assay (33P transfer), IGFR-1. The note with it: Table 2, kinase inhibition class.

Another assay concerns the target T4, c-Met (Homo sapiens, UniProt P08581).
T4 construct: Kinases are expressed as either kinase domains or full length constructs; made in house
Nature of the assay: Kinase inhibition assay (33P transfer), c-Met. The note with it: Table 2, kinase inhibition class; read-out: Met-1. The essentials: as §1

Another assay has as its target T5, EGFR (Homo sapiens, UniProt P00533).
T5 construct: Kinases are expressed as either kinase domains or full length constructs; made in house
Put plainly: Kinase inhibition assay (33P transfer), EGFR. The note with it: Table 2, kinase inhibition class; read-out: EGFR-1. The essentials: as §1

The target of another assay is T6, Kdr (Homo sapiens, UniProt P35968).
T6 construct: Kinases are expressed as either kinase domains or full length constructs; made in house
Put plainly: Kinase inhibition assay (33P transfer), Kdr. The note with it: Table 3; read-out: KDR-1. The procedure, abridged: as §2

A further assay concerns the target T7, EPHB4 (Homo sapiens, UniProt P54760).
T7 construct: Kinases are expressed as either kinase domains or full length constructs; made in house
T7 sequence (P54760 16-987): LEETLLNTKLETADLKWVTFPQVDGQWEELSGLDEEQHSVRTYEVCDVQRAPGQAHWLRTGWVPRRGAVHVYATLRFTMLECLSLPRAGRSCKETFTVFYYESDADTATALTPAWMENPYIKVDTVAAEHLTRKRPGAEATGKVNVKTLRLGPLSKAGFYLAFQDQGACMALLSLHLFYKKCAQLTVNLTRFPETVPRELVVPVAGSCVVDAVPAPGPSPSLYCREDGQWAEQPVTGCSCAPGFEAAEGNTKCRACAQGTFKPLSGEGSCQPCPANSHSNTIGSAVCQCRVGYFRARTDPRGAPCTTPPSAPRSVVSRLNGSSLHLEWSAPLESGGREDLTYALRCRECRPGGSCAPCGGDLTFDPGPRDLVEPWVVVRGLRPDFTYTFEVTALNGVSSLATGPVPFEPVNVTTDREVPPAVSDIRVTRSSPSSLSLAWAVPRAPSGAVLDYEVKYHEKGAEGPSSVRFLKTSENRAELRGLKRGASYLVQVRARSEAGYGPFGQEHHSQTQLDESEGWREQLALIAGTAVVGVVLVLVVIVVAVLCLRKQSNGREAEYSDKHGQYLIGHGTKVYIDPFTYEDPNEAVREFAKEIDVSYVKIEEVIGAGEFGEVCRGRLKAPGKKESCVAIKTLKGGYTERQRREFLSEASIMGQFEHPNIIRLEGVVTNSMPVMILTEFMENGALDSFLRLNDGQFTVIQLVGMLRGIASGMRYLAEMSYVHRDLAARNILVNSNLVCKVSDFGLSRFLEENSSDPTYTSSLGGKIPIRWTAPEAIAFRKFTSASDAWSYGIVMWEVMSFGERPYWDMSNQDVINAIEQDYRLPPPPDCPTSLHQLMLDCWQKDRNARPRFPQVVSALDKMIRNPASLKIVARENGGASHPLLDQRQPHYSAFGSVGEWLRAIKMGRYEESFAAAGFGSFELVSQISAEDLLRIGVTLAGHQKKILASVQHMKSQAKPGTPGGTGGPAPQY
Nature of the assay: Kinase inhibition assay (33P transfer), EPHB4. The note with it: read-out: EPHB4-1.

A further assay addresses T8, Tek (Homo sapiens, UniProt Q02763).
T8 construct: Kinases are expressed as either kinase domains or full length constructs; made in house
Put plainly: Kinase inhibition assay (33P transfer), Tek. Conditions: read-out: Tek-1. The essentials:
as §1

A further assay has as its target T9, ErbB4 (Homo sapiens, UniProt Q15303).
T9 construct: Kinases are expressed as either kinase domains or full length constructs; made in house
Put plainly: Kinase inhibition assay (33P transfer), ErbB4. Conditions: read-out: ErbB4-1.

Another assay concerns the target T10, Lck (Homo sapiens, UniProt P06239).
T10 construct: Kinases are expressed as either kinase domains or full length constructs; made in house
Nature of the assay: Kinase inhibition assay (33P transfer), Lck. The note with it: Table 3; read-out: Lck-1. The procedure, abridged: as §2

The next assay addresses T11, Zap-70 (Homo sapiens, UniProt P43403).
T11 construct: Kinases are expressed as either kinase domains or full length constructs; made in house
T11 sequence (P43403 1-619): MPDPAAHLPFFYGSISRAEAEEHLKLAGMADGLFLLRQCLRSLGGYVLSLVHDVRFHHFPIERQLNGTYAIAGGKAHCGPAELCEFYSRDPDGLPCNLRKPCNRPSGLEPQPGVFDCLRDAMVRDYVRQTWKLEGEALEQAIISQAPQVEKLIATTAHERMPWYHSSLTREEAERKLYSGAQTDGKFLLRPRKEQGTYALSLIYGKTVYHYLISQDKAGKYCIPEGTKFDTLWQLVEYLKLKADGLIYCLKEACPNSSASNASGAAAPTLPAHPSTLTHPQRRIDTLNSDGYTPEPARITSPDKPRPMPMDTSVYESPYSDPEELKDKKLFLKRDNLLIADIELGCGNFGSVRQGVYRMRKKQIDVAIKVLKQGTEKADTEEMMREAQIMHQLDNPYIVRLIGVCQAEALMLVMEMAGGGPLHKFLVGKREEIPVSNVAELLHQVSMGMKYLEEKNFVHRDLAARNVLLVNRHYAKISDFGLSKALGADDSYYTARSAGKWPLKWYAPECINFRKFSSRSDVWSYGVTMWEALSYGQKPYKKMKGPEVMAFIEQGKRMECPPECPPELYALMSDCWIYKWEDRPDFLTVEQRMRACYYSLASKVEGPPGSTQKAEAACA
Nature of the assay: Kinase inhibition assay (33P transfer), Zap-70. Conditions: Table 3; read-out: Zap-1. The procedure, abridged: as §2

Molecules are shown by their SMILES. Bounds are passed on as bounds.

T10 sequence (P06239 whole entry, species assumed, the tested form may be a part): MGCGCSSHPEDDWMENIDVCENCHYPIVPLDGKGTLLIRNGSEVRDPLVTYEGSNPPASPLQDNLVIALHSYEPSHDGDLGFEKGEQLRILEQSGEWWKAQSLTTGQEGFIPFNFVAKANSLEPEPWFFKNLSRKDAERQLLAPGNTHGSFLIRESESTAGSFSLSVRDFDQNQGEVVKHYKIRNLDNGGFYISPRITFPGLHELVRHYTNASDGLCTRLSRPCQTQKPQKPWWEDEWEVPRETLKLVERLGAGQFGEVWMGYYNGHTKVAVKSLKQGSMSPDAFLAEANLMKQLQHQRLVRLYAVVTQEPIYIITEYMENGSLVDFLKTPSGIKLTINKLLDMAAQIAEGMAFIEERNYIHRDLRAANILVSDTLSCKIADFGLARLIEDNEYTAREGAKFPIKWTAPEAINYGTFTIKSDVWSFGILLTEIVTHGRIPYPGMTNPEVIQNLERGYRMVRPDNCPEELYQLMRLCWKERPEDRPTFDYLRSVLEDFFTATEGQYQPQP
T3 sequence (P08069 31-1367): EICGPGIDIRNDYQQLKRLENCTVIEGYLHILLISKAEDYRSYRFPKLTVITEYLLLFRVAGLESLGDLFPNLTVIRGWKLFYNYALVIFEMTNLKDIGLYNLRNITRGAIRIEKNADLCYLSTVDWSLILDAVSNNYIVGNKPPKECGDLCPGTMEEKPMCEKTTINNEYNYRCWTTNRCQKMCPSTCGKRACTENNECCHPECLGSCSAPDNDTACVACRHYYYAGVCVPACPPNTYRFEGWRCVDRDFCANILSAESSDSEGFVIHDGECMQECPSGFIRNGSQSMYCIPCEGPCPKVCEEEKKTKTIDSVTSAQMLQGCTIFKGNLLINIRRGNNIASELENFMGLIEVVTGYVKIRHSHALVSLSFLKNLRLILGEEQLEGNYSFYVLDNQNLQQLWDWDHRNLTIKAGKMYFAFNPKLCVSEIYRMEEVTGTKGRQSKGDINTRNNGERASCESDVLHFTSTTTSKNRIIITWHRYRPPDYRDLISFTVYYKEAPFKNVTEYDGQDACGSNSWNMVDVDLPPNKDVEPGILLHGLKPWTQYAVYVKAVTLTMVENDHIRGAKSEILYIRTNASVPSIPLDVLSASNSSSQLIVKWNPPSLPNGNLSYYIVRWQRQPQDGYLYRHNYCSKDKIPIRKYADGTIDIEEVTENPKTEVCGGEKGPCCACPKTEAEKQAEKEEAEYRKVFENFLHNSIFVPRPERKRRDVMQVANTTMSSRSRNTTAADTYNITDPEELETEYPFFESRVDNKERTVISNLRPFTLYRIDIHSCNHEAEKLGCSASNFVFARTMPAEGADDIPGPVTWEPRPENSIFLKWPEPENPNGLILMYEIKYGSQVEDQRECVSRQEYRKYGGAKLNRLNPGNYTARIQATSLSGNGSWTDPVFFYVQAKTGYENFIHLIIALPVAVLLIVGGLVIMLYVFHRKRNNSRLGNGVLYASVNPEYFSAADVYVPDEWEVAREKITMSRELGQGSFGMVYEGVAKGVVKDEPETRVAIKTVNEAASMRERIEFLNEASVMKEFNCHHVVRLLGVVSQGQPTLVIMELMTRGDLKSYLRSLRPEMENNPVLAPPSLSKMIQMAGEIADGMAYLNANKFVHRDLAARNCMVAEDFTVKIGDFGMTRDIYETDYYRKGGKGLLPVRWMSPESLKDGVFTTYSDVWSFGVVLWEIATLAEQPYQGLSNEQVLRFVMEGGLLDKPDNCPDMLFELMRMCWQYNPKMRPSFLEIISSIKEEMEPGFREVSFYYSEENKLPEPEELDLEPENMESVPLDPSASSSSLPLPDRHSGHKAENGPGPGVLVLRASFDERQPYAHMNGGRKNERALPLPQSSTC
T6 sequence (P35968 20-1356, species assumed): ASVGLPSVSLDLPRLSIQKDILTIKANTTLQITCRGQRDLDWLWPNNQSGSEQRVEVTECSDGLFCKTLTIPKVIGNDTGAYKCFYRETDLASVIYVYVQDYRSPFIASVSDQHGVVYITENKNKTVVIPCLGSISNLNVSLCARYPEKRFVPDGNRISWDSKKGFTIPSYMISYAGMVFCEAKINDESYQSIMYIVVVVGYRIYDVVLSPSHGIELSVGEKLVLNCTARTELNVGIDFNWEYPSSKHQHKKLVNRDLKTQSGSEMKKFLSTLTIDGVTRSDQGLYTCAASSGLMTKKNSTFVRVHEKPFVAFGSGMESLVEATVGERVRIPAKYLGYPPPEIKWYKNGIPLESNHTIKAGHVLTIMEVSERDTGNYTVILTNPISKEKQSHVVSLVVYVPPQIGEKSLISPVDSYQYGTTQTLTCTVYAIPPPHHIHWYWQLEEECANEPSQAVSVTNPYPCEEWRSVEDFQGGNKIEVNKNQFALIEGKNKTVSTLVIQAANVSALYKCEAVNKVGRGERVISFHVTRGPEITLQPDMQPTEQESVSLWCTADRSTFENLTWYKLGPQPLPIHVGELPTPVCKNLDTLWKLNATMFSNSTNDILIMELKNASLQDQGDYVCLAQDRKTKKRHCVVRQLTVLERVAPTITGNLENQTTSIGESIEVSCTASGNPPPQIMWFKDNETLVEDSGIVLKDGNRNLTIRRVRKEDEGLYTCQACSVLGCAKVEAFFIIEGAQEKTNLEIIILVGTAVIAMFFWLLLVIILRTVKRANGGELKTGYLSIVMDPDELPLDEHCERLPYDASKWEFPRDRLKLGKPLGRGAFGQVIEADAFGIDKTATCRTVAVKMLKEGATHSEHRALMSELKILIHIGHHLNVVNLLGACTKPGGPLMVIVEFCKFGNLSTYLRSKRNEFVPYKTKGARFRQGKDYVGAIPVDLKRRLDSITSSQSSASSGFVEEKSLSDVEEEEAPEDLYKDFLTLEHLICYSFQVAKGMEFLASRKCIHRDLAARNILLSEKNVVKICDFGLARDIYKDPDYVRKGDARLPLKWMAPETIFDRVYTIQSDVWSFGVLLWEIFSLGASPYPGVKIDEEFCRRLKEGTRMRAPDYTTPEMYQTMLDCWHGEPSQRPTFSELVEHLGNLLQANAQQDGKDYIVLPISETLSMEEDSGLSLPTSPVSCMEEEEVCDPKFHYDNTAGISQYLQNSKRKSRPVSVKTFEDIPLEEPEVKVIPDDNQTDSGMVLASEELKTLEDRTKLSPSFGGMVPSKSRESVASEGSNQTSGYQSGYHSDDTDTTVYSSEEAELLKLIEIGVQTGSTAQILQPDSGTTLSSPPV
T5 sequence (P00533 25-1210, species assumed): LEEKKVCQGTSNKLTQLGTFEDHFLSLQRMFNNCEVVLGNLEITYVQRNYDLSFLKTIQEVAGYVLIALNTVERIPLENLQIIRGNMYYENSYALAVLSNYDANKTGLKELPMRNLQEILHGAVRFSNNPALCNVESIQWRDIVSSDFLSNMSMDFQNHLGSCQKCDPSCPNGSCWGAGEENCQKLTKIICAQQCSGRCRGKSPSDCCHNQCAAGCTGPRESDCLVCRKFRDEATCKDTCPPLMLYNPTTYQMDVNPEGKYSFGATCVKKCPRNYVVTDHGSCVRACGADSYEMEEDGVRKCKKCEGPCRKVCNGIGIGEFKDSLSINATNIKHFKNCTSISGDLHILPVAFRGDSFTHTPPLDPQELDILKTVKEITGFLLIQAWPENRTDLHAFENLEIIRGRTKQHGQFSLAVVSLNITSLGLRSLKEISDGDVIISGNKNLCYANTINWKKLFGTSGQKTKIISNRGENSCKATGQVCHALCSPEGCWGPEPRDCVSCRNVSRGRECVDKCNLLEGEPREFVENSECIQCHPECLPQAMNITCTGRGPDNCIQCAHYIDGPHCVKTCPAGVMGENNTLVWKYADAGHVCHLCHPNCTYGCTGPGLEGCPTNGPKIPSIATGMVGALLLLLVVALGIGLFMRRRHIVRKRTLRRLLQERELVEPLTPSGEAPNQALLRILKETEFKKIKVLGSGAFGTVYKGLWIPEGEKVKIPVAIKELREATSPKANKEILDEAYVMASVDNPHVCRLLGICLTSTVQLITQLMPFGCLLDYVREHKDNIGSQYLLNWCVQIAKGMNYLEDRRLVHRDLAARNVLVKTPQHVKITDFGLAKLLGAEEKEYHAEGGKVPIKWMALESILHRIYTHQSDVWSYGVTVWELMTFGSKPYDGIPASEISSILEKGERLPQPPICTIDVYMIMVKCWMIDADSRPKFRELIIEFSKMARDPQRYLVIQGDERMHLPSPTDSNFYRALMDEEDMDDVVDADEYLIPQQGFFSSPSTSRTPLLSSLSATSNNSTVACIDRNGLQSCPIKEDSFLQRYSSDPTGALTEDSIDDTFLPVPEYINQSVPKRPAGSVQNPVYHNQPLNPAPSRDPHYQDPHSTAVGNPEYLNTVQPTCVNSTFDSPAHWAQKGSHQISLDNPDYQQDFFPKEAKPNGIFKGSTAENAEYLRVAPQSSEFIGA
T2 sequence (Q9Y243 whole entry, the tested form may be a part): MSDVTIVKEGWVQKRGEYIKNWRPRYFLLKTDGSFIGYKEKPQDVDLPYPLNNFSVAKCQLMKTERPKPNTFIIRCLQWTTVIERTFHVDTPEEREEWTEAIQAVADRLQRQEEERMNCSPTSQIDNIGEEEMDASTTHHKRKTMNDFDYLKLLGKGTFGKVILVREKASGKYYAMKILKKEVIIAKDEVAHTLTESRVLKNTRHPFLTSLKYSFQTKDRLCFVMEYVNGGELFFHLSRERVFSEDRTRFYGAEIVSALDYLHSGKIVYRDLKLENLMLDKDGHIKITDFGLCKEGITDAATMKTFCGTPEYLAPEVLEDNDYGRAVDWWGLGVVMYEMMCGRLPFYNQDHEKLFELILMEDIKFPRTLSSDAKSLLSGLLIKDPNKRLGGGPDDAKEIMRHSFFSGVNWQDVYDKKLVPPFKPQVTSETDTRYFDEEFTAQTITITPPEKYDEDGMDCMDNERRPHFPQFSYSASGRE

For `COc1cc(Nc2ncnc(Nc3cc(C)ccc3C)n2)cc(OC)c1OC` [Compound 932], the IC50 is over 11.8 µM at Itk; over 11.8 µM on AKT; 1.05 to 6.29 µM against IGFR-1; 6.29 to 9.18 µM on c-Met; 1.05 to 6.29 µM on EGFR; under 1.05 µM on Kdr. For the same molecule, the IC50 at EPHB4 was over 11.8 µM; at Tek it was 6.29 to 9.18 µM; at ErbB4 it was 1.05 to 6.29 µM; at Lck it was 1.05 to 6.29 µM; on Zap-70 it was over 11.8 µM.
For the molecule `COc1cc(Nc2ncnc(Nc3ccc(C)c([N+](=O)[O-])c3)n2)cc(OC)c1OC` [Compound 934], the IC50 on Itk was over 10.9 µM; at AKT, over 10.9 µM; at IGFR-1 it was under 0.97 µM; on c-Met, over 10.9 µM; at EGFR, 0.97 to 5.82 µM; at Kdr it was 0.97 to 5.82 µM. Further, the IC50 on EPHB4 was 0.97 to 5.82 µM; on ErbB4, over 10.9 µM; at Lck it was over 10.9 µM; on Zap-70, over 10.9 µM.
Take `COc1cc(Nc2ncnc(Nc3cccc(C(=O)O)c3)n2)cc(OC)c1OC` [Compound 933]: the IC50 at Itk was over 11.3 µM; on AKT, over 11.3 µM; at IGFR-1, 1.01 to 6.04 µM; on c-Met, over 11.3 µM; at EGFR it was under 1.01 µM; at Kdr, 1.01 to 6.04 µM. Moreover, the IC50 on EPHB4 is 6.04 to 8.81 µM; on ErbB4, 1.01 to 6.04 µM; on Lck it was 1.01 to 6.04 µM; on Zap-70 it was over 11.3 µM.
Regarding `COc1cc(Nc2ncnc(Nc3cccc(OC(F)(F)F)c3)n2)cc(OC)c1OC` [Compound 250], the IC50 at Itk was over 10.3 µM; at AKT, over 10.3 µM; against IGFR-1, under 0.915 µM; at c-Met, over 10.3 µM; at EGFR it was under 0.915 µM; on Kdr, 5.49 to 8 µM. Besides, the IC50 on EPHB4 is over 10.3 µM; at Tek, over 10.3 µM; on ErbB4, 0.915 to 5.49 µM; on Lck, 0.915 to 5.49 µM; on Zap-70, over 10.3 µM.
In the case of `COc1ccc(Nc2ncnc(Nc3ccc(OCc4ccccc4)cc3)n2)cc1O` [Compound 171], the IC50 on Itk was over 10.8 µM; on AKT, 0.963 to 5.78 µM; at IGFR-1 it was over 10.8 µM; on c-Met, over 10.8 µM; on EGFR, under 0.963 µM; at Kdr, over 10.8 µM. In addition, the IC50 is 5.78 to 8.42 µM at EPHB4; over 10.8 µM at Tek; over 10.8 µM at ErbB4; over 10.8 µM at Lck; over 10.8 µM on Zap-70.
In the case of `Oc1cccc(Nc2ncnc(Nc3ccc(OCc4ccccc4)cc3)n2)c1` [Compound 159], the IC50 on Itk was over 11.7 µM; at AKT, 1.04 to 6.23 µM; against IGFR-1, 9.08 to 11.7 µM; on c-Met it was 1.04 to 6.23 µM; on EGFR, under 1.04 µM; on Kdr it was 6.23 to 9.08 µM. For the same molecule, the IC50 is 6.23 to 9.08 µM on EPHB4; 6.23 to 9.08 µM at Tek; over 11.7 µM at ErbB4; over 11.7 µM on Lck; 6.23 to 9.08 µM on Zap-70.
In the case of `COc1cc(Nc2ncnc(Nc3nc4ccc(F)cc4s3)n2)cc(OC)c1OC` [Compound 317], the IC50 on Itk was over 10.5 µM; at AKT, over 10.5 µM; at IGFR-1 it was 0.934 to 5.6 µM; on c-Met, 0.934 to 5.6 µM; on EGFR, over 10.5 µM; on Kdr it was 0.934 to 5.6 µM. In addition, the IC50 on EPHB4 was 5.6 to 8.17 µM; on Tek, 8.17 to 10.5 µM; at Lck, 0.934 to 5.6 µM; on Zap-70, over 10.5 µM.
With `COc1cc(Nc2ncnc(Nc3cccc(Oc4ccccc4)c3)n2)cc(OC)c1OC` [Compound 105], the IC50 was over 10.1 µM at Itk; over 10.1 µM at AKT; over 10.1 µM at IGFR-1; 0.898 to 5.39 µM on c-Met; 0.898 to 5.39 µM at EGFR; 0.898 to 5.39 µM at Kdr. For the same molecule, the IC50 at EPHB4, on Tek, on Lck and at Zap-70 was over 10.1 µM throughout.
Regarding `COc1ccc(CNc2ncnc(Nc3cc(OC)c(OC)c(OC)c3)n2)cc1` [Compound 80], the IC50 at Itk, at AKT, against IGFR-1, on c-Met, at EGFR and at Kdr was over 11.3 µM throughout. The IC50 at EPHB4, on Tek, on Lck and on Zap-70 was over 11.3 µM in each case.
Consider `COc1cc(Nc2ncnc(Nc3[nH]ncc3-c3ccccc3)n2)cc(OC)c1OC` [Compound 369], for which the IC50 at Itk was 8.34 to 10.7 µM; on AKT, over 10.7 µM; on IGFR-1, over 10.7 µM; at c-Met, over 10.7 µM; on EGFR, over 10.7 µM; at Kdr, over 10.7 µM. For the same molecule, the IC50 was over 10.7 µM at EPHB4, over 10.7 µM at Tek, 5.72 to 8.34 µM on Lck and over 10.7 µM on Zap-70.
